Key:
Assay in all cases: relative viability (nuclei count vs DMSO), 5 days (fraction); higher = more cells survive
KN-93 + Lapatinib = compound: CN(C/C=C/C1=CC=C(C=C1)Cl)CC2=CC=CC=C2N(CCO)S(=O)(=O)C3=CC=C(C=C3)OC [KN-93] + CS(=O)(=O)CCNCc1ccc(-c2ccc3ncnc(Nc4ccc(OCc5cccc(F)c5)c(Cl)c4)c3c2)o1 [Lapatinib] (partner 2 µM)
Summary of the method: (§1)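 Five library-drug doses in √10 steps were combined with a fixed anchor-drug dose, or a single drug was given alone, by pin tool to lung cancer cell lines in 1536-well plates the day after seeding. Nuclei were stained and counted after 5 days. Relative viability is the nuclei count in treated wells over that in vehicle wells, taken as the median of duplicate plates.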

KN-93 + Alpelisib = compound: CN(C/C=C/C1=CC=C(C=C1)Cl)CC2=CC=CC=C2N(CCO)S(=O)(=O)C3=CC=C(C=C3)OC [KN-93] + Cc1nc(NC(=O)N2CCC[C@H]2C(N)=O)sc1-c1ccnc(C(C)(C)C(F)(F)F)c1 [Alpelisib] (partner 2 µM)
Summary of the method: as §1

KN-93 + Dasatinib = compound: CN(C/C=C/C1=CC=C(C=C1)Cl)CC2=CC=CC=C2N(CCO)S(=O)(=O)C3=CC=C(C=C3)OC [KN-93] + Cc1nc(Nc2ncc(C(=O)Nc3c(C)cccc3Cl)s2)cc(N2CCN(CCO)CC2)n1 [Dasatinib] (partner 0.075 µM)
Summary of the method: as §1

KN-93 + Phenformin = compound: CN(C/C=C/C1=CC=C(C=C1)Cl)CC2=CC=CC=C2N(CCO)S(=O)(=O)C3=CC=C(C=C3)OC [KN-93] + N=C(N)NC(=N)NCCc1ccccc1 [Phenformin] (partner 250 µM)
Summary of the method: as §1

KN-93 + AZD7762 = compound: CN(C/C=C/C1=CC=C(C=C1)Cl)CC2=CC=CC=C2N(CCO)S(=O)(=O)C3=CC=C(C=C3)OC [KN-93] + NC(=O)Nc1cc(-c2cccc(F)c2)sc1C(=O)N[C@H]1CCCNC1 [AZD7762] (partner 0.2 µM)
Summary of the method: as §1

Cell Line	relative viability (KN-93 + Lapatinib; first compound 0.08 µM)	relative viability (KN-93 + Lapatinib; first compound 0.253 µM)	relative viability (KN-93 + Lapatinib; first compound 2.53 µM)	relative viability (KN-93 + Lapatinib; first compound 8 µM)	relative viability (KN-93 + Alpelisib; first compound 0.08 µM)	relative viability (KN-93 + Alpelisib; first compound 0.253 µM)	relative viability (KN-93 + Alpelisib; first compound 2.53 µM)	relative viability (KN-93 + Alpelisib; first compound 8 µM)	relative viability (KN-93 + Dasatinib; first compound 0.08 µM)	relative viability (KN-93 + Dasatinib; first compound 0.253 µM)	relative viability (KN-93 + Dasatinib; first compound 2.53 µM)	relative viability (KN-93 + Dasatinib; first compound 8 µM)	relative viability (KN-93 + Phenformin; first compound 0.08 µM)	relative viability (KN-93 + Phenformin; first compound 0.253 µM)	relative viability (KN-93 + Phenformin; first compound 2.53 µM)	relative viability (KN-93 + Phenformin; first compound 8 µM)	relative viability (KN-93 + AZD7762; first compound 0.08 µM)	relative viability (KN-93 + AZD7762; first compound 0.253 µM)	relative viability (KN-93 + AZD7762; first compound 2.53 µM)	relative viability (KN-93 + AZD7762; first compound 8 µM)
NCI-H1395	1.63	1.11	1.04	0.679	1.16	1.1	1.05	0.506	0.428	0.402	0.708	0.31	0.477	0.449	0.48	0.449	0.421	0.403	0.391	0.345
NCI-H1437	0.632	0.963	0.875	0.425	0.876	1.25	0.88	0.613	0.457	0.44	0.374	0.153	0.396	0.292	0.352	0.31	1.16	1.29	1.24	0.654
NCI-H1651	0.732	1.02	0.914	0.664	1.05	1.23	1.3	0.624	0.491	0.461	0.626	0.246	0.369	0.44	0.369	0.321	0.394	0.505	0.526	0.353
NCI-H1666	0.747	0.638	0.679	0.532	0.974	0.895	1.22	0.674	0.842	0.924	0.889	0.645	0.611	0.772	0.656	0.576	0.863	0.874	0.802	0.788
NCI-H1734	1.15	1.1	1.6	0.88	0.718	0.712	0.746	0.533	0.478	0.544	0.577	0.358	0.363	0.446	0.381	0.411	0.465	0.627	0.597	0.441
NCI-H1755	1.02	1.26	1.04	0.561	0.718	1.13	1.2	0.819	0.392	0.407	0.384	0.255	0.699	0.608	0.674	0.605	0.392	0.411	0.444	0.407
NCI-H1792	–	0.904	1.67	0.818	–	0.759	0.735	0.458	0.651	0.681	0.973	0.633	0.177	–	0.25	0.258	0.583	0.504	0.683	0.353
NCI-H1793	–	0.804	0.992	0.556	–	0.851	0.624	0.542	0.406	0.374	0.407	0.169	0.372	0.36	0.367	0.2	0.358	0.458	0.454	0.159
NCI-H1915	0.963	1.25	1.01	0.908	1.06	1.17	1.1	0.95	0.354	0.343	0.305	0.225	0.382	0.421	0.408	0.359	0.67	0.735	0.632	0.671
NCI-H1944	0.84	0.793	0.96	0.771	0.832	0.761	0.931	0.754	0.235	0.22	0.213	0.154	0.172	0.216	0.218	0.195	0.527	0.433	0.585	0.579
NCI-H1975	0.656	1.05	0.976	0.579	0.607	0.717	0.556	0.284	0.339	0.336	0.351	0.224	0.423	0.463	0.456	0.4	0.664	0.599	0.72	0.558
NCI-H1993	0.693	0.772	0.862	0.758	0.648	0.574	0.71	0.59	0.518	0.547	0.55	0.47	0.619	0.519	0.512	0.574	0.608	0.654	0.708	0.586
NCI-H2085	0.816	0.695	0.803	0.541	0.993	1.07	0.985	0.749	0.237	0.254	0.231	0.268	0.698	0.796	0.815	0.655	0.883	1.12	1.06	0.592
NCI-H2087	1.06	1.22	1.02	0.286	0.879	1.21	0.933	0.532	0.793	1.38	0.882	0.622	0.427	0.648	0.57	0.442	0.821	1.61	1.16	1.04
NCI-H2126	0.806	0.659	0.804	0.702	0.81	0.725	0.769	0.727	0.565	0.468	0.578	0.364	0.524	0.483	0.502	0.481	0.939	1.01	1.03	0.974
NCI-H2170	0.271	0.257	0.274	0.249	0.782	0.876	0.928	0.65	0.501	0.55	0.718	0.266	0.434	0.419	0.392	0.402	0.623	0.971	0.845	0.734
NCI-H2347	0.932	0.921	1.17	0.595	1	1.09	1.07	0.764	0.322	0.273	0.288	0.245	0.517	0.376	0.55	0.362	0.621	0.861	0.885	0.498
NCI-H2405	1.17	1.09	1.06	0.659	0.831	0.732	0.766	0.526	0.222	0.238	0.491	0.204	0.379	0.479	0.718	0.354	0.735	0.859	0.806	0.555
NCI-H3122	1.09	1.01	1.12	0.978	0.829	0.659	0.766	0.585	0.716	0.824	1.12	0.661	0.384	0.381	0.901	0.326	0.892	1.11	1.12	0.934
PC-3 [JPC-3]	0.462	0.382	0.439	0.428	0.999	1.04	1.01	0.94	0.941	1.11	1.03	0.673	0.437	0.46	0.494	0.441	0.813	0.757	0.781	0.714
PC-14	0.305	0.227	0.318	0.307	0.753	1.01	1.14	0.839	0.335	0.18	0.198	0.0533	0.593	0.685	0.596	0.547	0.331	0.316	0.527	0.343
RERF-LC-KJ	0.803	0.81	1.01	0.776	0.682	0.754	0.766	0.634	0.664	0.788	0.672	0.277	0.365	0.409	0.462	0.307	0.707	0.898	1	0.753

Reference: the supplement of paper PMC10307832
